pIC50: −log10 of the molar value. Converted amounts (≈) assume the structure as drawn. “And” between values parts separate entries of the source, which are not always exact repeats. Equal values may be shown once. “Also recorded” adds a separate entry of the source. Read-outs that look alike come from different tables or passages of the source.
Experiments:
[1] = system: MDA-MB-453 human breast cancer cells; assay: MTT growth inhibition assay and combination index on MDA-MB-453 cells
Experimental: MTT assay: the MTT (3-(4,5-dimethyl-2-thiazol)-2,5-diphenyl-2H tetrazolilum bromide) cell proliferation assay system (Roche Diagnostic, Mannheim, Germany) was used to determine the sensitivity of the various cell lines to agents. Cells were seeded at 1×10^4 cells/well in 96-well plates and allowed to attach for 24 h. The medium was replaced with fresh medium containing DMSO or compound. The cells were treated for 96 or 120 h, after which they were incubated with MTT reagents and the absorbance read at 650 and 575 nm.
The results of the MTT assay were analyzed for possible synergistic effects using the median effect principle.

[2] = system: MDA-MB-453 cells; assay: Calcium release, cells preloaded with Fura-2, MDA-MB-453; format: cell-based, human; conditions: MDA-MB-453, FIG. 7C
Experimental: (§1) Methods: To reveal signaling pathways, human breast and colon cancer, as well as 293T(NK-kB), cells were treated with actein, alone or combined with specific inhibitors. Effects were measured using the MTT, luciferase, promoter and Western blot assays and histology. To assess effects on calcium release, cells were preloaded with the calcium sensitive dye Fura-2. To enhance bioavailability, actein was conjugated to nanoparticle liposomes.
(§2) To elucidate the primary targets of actein, the effect of actein on calcium release was assessed. Cells were preloaded with the calcium sensitive dye Fura-2, which binds to calcium ions inside the cell. […] The effect was dose dependent in that it was stronger at 10 μM than at 10 nM in MCF7 breast cancer cells (FIG. 7A, B). […] The increase in calcium level was more sustained at the higher dose of actein (10 μM)) versus 10 nM and it continued longer for MDA-MB-453 than for MCF7 breast cancer cells (FIG. 7C).

[3] = system: HT29 human colon cancer cells; assay: MTT growth inhibition assay on HT29 cells; format: cell-based
[4] = system: breast cancer cell growth; conditions: Einbond et al., 2008; cited from earlier work
[5] = system: NFκB transcription factor; assay: NF-kB luciferase assay in 293T cells; format: cell-based; conditions: 293T(NF-κB) cells
Experimental: A luciferase reporter construct is integrated in 293T cells and is regulated by 6 copies of the NFκB response element. The assay to monitor the activity of NFκB transcription factor was performed as described in the manufacturer's instructions (Panomics, Freemont, Calif.).

[6] = system: MCF7 cells; assay: Calcium release, cells preloaded with Fura-2, MCF7; format: cell-based, human
Experimental: as §1, §2

[7] = system: HT29 cells; assay: Calcium release, cells preloaded with Fura-2, HT29; format: cell-based, human
Experimental: as §1, §2

[8] = system: Na+/K+-ATPase; conditions: Einbond et al., 2008, cited from earlier work
[9] = system: MDA-MB-453 breast cancer cells; assay: Gene expression analysis in MDA-MB-453 cells; format: cell-based, human; conditions: actein 20 μg/ml
Experimental: Gene expression analysis was performed as previously described in vitro (Einbond et al., 2007)
AffyLimma analysis: To identify individual alterations in gene expression induced by treatment, an unbiased informatics analysis was performed using the AffyLimmaGUI package in the open-source Bioconductor suite, as previously described [Einbond et al., 2007.]

[10] = system: 293T(NF-κB) stably transformed cells; assay: MTT growth inhibition assay on 293T(NF-κB) cells; format: cell-based; conditions: Homo sapiens, HEK-293T, 96 h MTT, FIG. 10B
[11] = system: MCF7 human breast cancer cells; assay: MTT growth inhibition assay on MCF7 cells; format: cell-based
[12] = system: rat liver; conditions: cited from earlier work
[13] = system: rat liver; assay: Gene expression in rat liver after actein; format: in vivo; conditions: gene expression analysis
[14] = system: 293T(null) cells; assay: MTT growth inhibition assay on 293T(null) cells; format: cell-based; conditions: Homo sapiens, HEK-293T, 96 h MTT, FIG. 10B
[15] = system: IKKβ protein; assay: Western blot analysis of IKKβ; format: cell-based; conditions: 3 h, FIG. 10C
Experimental: Cells were treated for increasing times, in media containing serum, with approximately the IC50 and twice the IC50 concentration, measured at 48 h, of actein. Western blot analysis was performed as previously described (Einbond et al., 2004). The membrane was incubated with the primary antibody IKKβ (Santa Cruz Biotechnology; Santa Cruz, Calif.); β-actin was used as a loading control.

[16] = system: NF-kB promoter activity, p-Erk, p-Akt, cyclin D1; conditions: later times (24 h), Einbond et al., 2008; cited from earlier work
[17] = Homo sapiens, MDA-MB-453, read-out: IC50, agent alone

C/C=C(/C)C(=O)O[C@H]1C(C)=C2[C@H]([C@@H]1OC(=O)CCCCCCC)[C@@](C)(OC(C)=O)C[C@H](OC(=O)CCC)[C@@]1(O)[C@H]2OC(=O)[C@@]1(C)O [thapsigargin, reference compound]
IC50 [1, 17]: 0.018 µg/mL
viability at 0.01 µg/mL ([1]; Homo sapiens, MDA-MB-453, read-out: percent viable cells): 76.3%

heparin [reference compound]
effect of heparin on actein-induced calcium release [2]: completely blocked
effect of heparin on the growth inhibitory effects of actein ([3]; HT29 colon cancer cells): partially blocked

CC(=O)O[C@@H]1C[C@@]23C[C@@]24CC[C@H](O[C@@H]2OC[C@@H](O)[C@H](O)[C@H]2O)C(C)(C)[C@@H]4CC[C@H]3[C@]2(C)C[C@@H]3O[C@]4(C[C@@H](C)[C@@H]3[C@@]12C)O[C@H](O)[C@@]1(C)O[C@@H]41 [actein]
combination with digitoxin on breast cancer cell growth [4]: synergized with digitoxin
effect on 293T cells stably transformed with the NF-κB plasmid (FIG. 10A NF-kB activity) [5]: did not increase cell proliferation
calcium release (action potential, Fura-2) ([6]; MCF7, actein 10 nM and 10 μM, FIG. 7A, B): induced an increase in action potential indicating calcium release
intracellular calcium (ion concentration) levels ([6]; MCF7, actein 100 nM or 100 μM, FIG. 4): significantly increases intracellular calcium
time course of the calcium effect ([6]; MCF7 breast cancer cells): immediate and transient
calcium release (action potential, Fura-2) [2]: induced an increase in action potential indicating calcium release
calcium release (action potential, Fura-2) [7]: induced an increase in action potential indicating calcium release
activity of the purified Na-K ATPase [8]; 2007: inhibits the activity of the purified Na+/K+-ATPase; also recorded: inhibited the activity of the purified Na-K ATPase
combination with digitoxin on Na/K ATPase activity [8]: synergized with digitoxin
expression of the inflammatory pathway, cytokine-cytokine interaction ([9]; 6 h, up EPOR, down CXCR4, TRAF5, IL17RB): significantly modulated
expression of the MAPK signaling pathway ([9]; gene (up) HSPA1A): significantly altered
IC50 [10]: 38 µg/mL (≈ 56.1 µM)
pIC50 ([11]; MCF7, 96 h, read-out: IC50, concentration that caused 50% inhibition of cell growth): ~4.52
viability at 5 µg/mL ([11]; MCF7, actein 5 μg/ml alone or plus U0126 10 μM, read-out: percent viable cells): 79.2%
IC50 ([11]; MCF7, actein alone or combined with MEK inhibitor U0126, FIG. 6B, read-out: IC50, growth inhibition): 20 µg/mL
genes erythropoietin, CYP2C and ATP synthase in rat liver ([12]; actein 35.7 mg/kg for 6 h, rat liver (Einbond et al., 2009)): downregulated
responses elicited in rat liver in vivo ([12]; rat liver): elicited stress and statin-associated responses
IC50 ([3]; Homo sapiens, HT-29, 96 h, read-out: IC50, concentration that caused 50% inhibition of cell growth): ~24 µg/mL and ~35 µM
viability at 10 µg/mL ([3]; Homo sapiens, HT-29, HT29, actein 10 μg/ml alone or plus U0126 10 μM, read-out: percent viable cells): 79.1%
IC50 ([3]; Homo sapiens, HT-29, HT29, actein alone or combined with MEK inhibitor U0126, FIG. 6C, read-out: IC50, growth inhibition): 30 µg/mL
expression of the inflammatory gene CXCR4 in rat liver tissue [13]: reduced the expression
IC50 [14]: 75 µg/mL (≈ 111 µM)
level of IKKβ protein [15]: decreased the level of IKKβ protein in a dose dependent manner
level of NF-kB promoter activity, p-Erk, p-Akt and cyclin D1 protein [16]: reduced
IC50 ([1]; Homo sapiens, MDA-MB-453, 96 h, read-out: IC50, concentration that caused 50% inhibition of cell growth): ~8 µg/mL and ~12 µM
IC50 [1, 17]: 25 µg/mL
IC50 ([1]; Homo sapiens, MDA-MB-453, read-out: IC50, growth inhibition): 23 µg/mL
ability of actein to potentiate the effects of thapsigargin ([1]; MDA-MB-453, FIG. 8A, B): enhanced the effects of thapsigargin

Source: US20130177627A1, “Growth inhibitory effects of nanoparticles containing triterpene glycosides or triterpenes” (priority 2011, published 2013)
